Measurements: patent US11053204B2, “Pyrimidinyloxy benzene derivatives as herbicides” (FMC Corporation, priority 2015, dated 2021)

Assays:
Type in all cases: in vivo
[1] = system: galium (catchweed bedstraw, Galium aparine); test: Test C preemergence, plant response rating
[2] = system: geranium, cutleaf (cutleaf geranium, Geranium dissectum); test: Test C postemergence, plant response rating; settings: for Geranium, Cutleaf plant response rating: scale 0 to 100 (0 no effect, 100 complete control)
Procedure, shortened: (§1)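 Visual injury score, 0 = no effect, 100 = complete control, assigned against untreated controls after 13 to 15 d in the greenhouse. Compounds were applied in a surfactant-containing non-phytotoxic solvent mix, preemergence to seeded loam/sand or silt loam soil, or postemergence to 1- to 4-leaf plants (2 to 18 cm).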

[3] = system: windgrass (Apera spica-venti); test: Test C postemergence, plant response rating
Procedure, shortened: as §1

[4] = system: buckwheat, wild (wild buckwheat, Polygonum convolvulus); test: Test C postemergence, plant response rating; settings: for Buckwheat, Wild plant response rating: scale 0 to 100 (0 no effect, 100 complete control)
Procedure, shortened: as §1

[5] = system: wild poinsettia (Euphorbia heterophylla); test: Test C postemergence, plant response rating; settings: for Poinsettia, Wild plant response rating: scale 0 to 100 (0 no effect, 100 complete control)
Procedure, shortened: as §1

[6] = system: pigweed, palmer (palmer pigweed, Amaranthus palmeri); test: Test C postemergence, plant response rating; settings: for Pigweed, Palmer plant response rating: scale 0 to 100 (0 no effect, 100 complete control)
Procedure, shortened: as §1

[7] = system: wild mustard (Sinapis arvensis); test: Test C postemergence, plant response rating; settings: for Mustard, Wild plant response rating: scale 0 to 100 (0 no effect, 100 complete control)
Procedure, shortened: as §1

[8] = system: speedwell (bird's-eye speedwell, Veronica persica); test: Test C postemergence, plant response rating; settings: for Speedwell plant response rating: scale 0 to 100 (0 no effect, 100 complete control)
Procedure, shortened: as §1

[9] = system: field violet (Viola arvensis); test: Test C postemergence, plant response rating; settings: for Field Violet plant response rating: scale 0 to 100 (0 no effect, 100 complete control)
Procedure, shortened: as §1

[10] = system: johnsongrass (Sorghum halepense); test: Test C postemergence, plant response rating; settings: for Johnsongrass plant response rating: scale 0 to 100 (0 no effect, 100 complete control)
Procedure, shortened: as §1

[11] = system: Canada thistle (Cirsium arvense); test: Test C postemergence, plant response rating; settings: for Canada Thistle plant response rating: scale 0 to 100 (0 no effect, 100 complete control)
Procedure, shortened: as §1

[12] = system: nightshade (eastern black nightshade, Solanum ptycanthum); test: Test C postemergence, plant response rating; settings: for Nightshade plant response rating: scale 0 to 100 (0 no effect, 100 complete control)
Procedure, shortened: as §1

[13] = system: field poppy (Papaver rhoeas); test: Test C postemergence, plant response rating; settings: for Field Poppy plant response rating: scale 0 to 100 (0 no effect, 100 complete control)
Procedure, shortened: as §1

[14] = system: surinam grass (Brachiaria decumbens); test: Test C postemergence, plant response rating
Procedure, shortened: as §1

[15] = system: kochia (Kochia scoparia); test: Test C preemergence, plant response rating
[16] = system: pigweed, palmer (palmer pigweed, Amaranthus palmeri); test: Test C preemergence, plant response rating
[17] = system: windgrass (Apera spica-venti); test: Test C preemergence, plant response rating
[18] = system: johnsongrass (Sorghum halepense); test: Test C preemergence, plant response rating
[19] = 125 g ai/ha, scale 0 to 100 (0 no effect, 100 complete control)

CCCCC(=O)c1c(Oc2ncc(Cl)cn2)cccc1C(F)(F)F [Compound 130]
Plant response rating, Galium ([1]; 31 g ai/ha, scale 0 to 100): 50 | Plant response rating, Galium ([1]; 62 g ai/ha, scale 0 to 100): 90 | Plant response rating, Galium ([1]; 125 g ai/ha, scale of 0 to 100): 90 | Plant response rating, Geranium, Cutleaf ([2]; 16 g ai/ha, scale of 0 to 100): 25 | Plant response rating, Geranium, Cutleaf ([2]; 31 g ai/ha, scale 0 to 100): 35 | Geranium, Cutleaf plant response rating ([2]; 62 g ai/ha): 45 | Geranium, Cutleaf plant response rating ([2]; 125 g ai/ha): 60 | Plant response rating, Windgrass ([3]; 16 g ai/ha, scale of 0 to 100): 10 | Plant response rating, Windgrass ([3]; 31 g ai/ha, scale 0 to 100): 15 | Windgrass plant response rating [3, 19]: 35 | Plant response rating, Buckwheat, Wild ([4]; 16 g ai/ha, scale of 0 to 100): 35 | Plant response rating, Buckwheat, Wild ([4]; 31 g ai/ha, scale 0 to 100): 90 | Buckwheat, Wild plant response rating ([4]; 62 g ai/ha): 75 | Buckwheat, Wild plant response rating ([4]; 125 g ai/ha): 80 | Plant response rating, Poinsettia, Wild ([5]; 16 g ai/ha, scale of 0 to 100): 55 | Plant response rating, Poinsettia, Wild ([5]; 31 g ai/ha, scale 0 to 100): 70 | Poinsettia, Wild plant response rating ([5]; 62 g ai/ha): 60 | Poinsettia, Wild plant response rating ([5]; 125 g ai/ha): 75 | Plant response rating, Pigweed, Palmer ([6]; 16 g ai/ha, scale of 0 to 100): 35 | Plant response rating, Pigweed, Palmer ([6]; 31 g ai/ha, scale 0 to 100): 65 | Pigweed, Palmer plant response rating ([6]; 62 g ai/ha): 45 | Pigweed, Palmer plant response rating ([6]; 125 g ai/ha): 65 | Plant response rating, Mustard, Wild ([7]; 16 g ai/ha, scale of 0 to 100): 98 | Plant response rating, Mustard, Wild ([7]; 31 g ai/ha, scale 0 to 100): 90 | Mustard, Wild plant response rating ([7]; 62 g ai/ha): 100 | Mustard, Wild plant response rating ([7]; 125 g ai/ha): 100 | Plant response rating, Speedwell ([8]; 16 g ai/ha, scale of 0 to 100): 80 | Plant response rating, Speedwell ([8]; 31 g ai/ha, scale 0 to 100): 85 | Speedwell plant response rating ([8]; 62 g ai/ha): 98 | Speedwell plant response rating ([8]; 125 g ai/ha): 98 | Plant response rating, Field Violet ([9]; 16 g ai/ha, scale of 0 to 100): 80 | Plant response rating, Field Violet ([9]; 31 g ai/ha, scale 0 to 100): 85 | Field Violet plant response rating ([9]; 62 g ai/ha): 95 | Field Violet plant response rating ([9]; 125 g ai/ha): 100 | Plant response rating, Johnsongrass ([10]; 16 g ai/ha, scale of 0 to 100): 5 | Plant response rating, Johnsongrass ([10]; 31 g ai/ha, scale 0 to 100): 5 | Johnsongrass plant response rating ([10]; 62 g ai/ha): 10 | Johnsongrass plant response rating ([10]; 125 g ai/ha): 15 | Plant response rating, Canada Thistle ([11]; 16 g ai/ha, scale of 0 to 100): 75 | Plant response rating, Canada Thistle ([11]; 31 g ai/ha, scale 0 to 100): 75 | Canada Thistle plant response rating ([11]; 62 g ai/ha): 98 | Canada Thistle plant response rating ([11]; 125 g ai/ha): 98 | Plant response rating, Nightshade ([12]; 16 g ai/ha, scale of 0 to 100): 75 | Plant response rating, Nightshade ([12]; 31 g ai/ha, scale 0 to 100): 80 | Nightshade plant response rating ([12]; 62 g ai/ha): 85 | Nightshade plant response rating ([12]; 125 g ai/ha): 90 | Plant response rating, Field Poppy ([13]; 16 g ai/ha, scale of 0 to 100): 100 | Plant response rating, Field Poppy ([13]; 31 g ai/ha, scale 0 to 100): 100 | Field Poppy plant response rating ([13]; 62 g ai/ha): 100 | Field Poppy plant response rating ([13]; 125 g ai/ha): 100 | Plant response rating, Surinam Grass ([14]; 16 g ai/ha, scale of 0 to 100): 10 | Plant response rating, Surinam Grass ([14]; 31 g ai/ha, scale 0 to 100): 10 | Surinam Grass plant response rating [14, 19]: 20 | Plant response rating, Kochia ([15]; 31 g ai/ha, scale 0 to 100): 65 | Plant response rating, Kochia ([15]; 62 g ai/ha, scale 0 to 100): 65 | Plant response rating, Kochia ([15]; 125 g ai/ha, scale of 0 to 100): 98 | Plant response rating, Pigweed, Palmer ([16]; 31 g ai/ha, scale 0 to 100): 75 | Plant response rating, Pigweed, Palmer ([16]; 62 g ai/ha, scale 0 to 100): 100 | Plant response rating, Pigweed, Palmer ([16]; 125 g ai/ha, scale of 0 to 100): 85 | Plant response rating, Windgrass ([17]; 31 g ai/ha, scale 0 to 100): 70 | Plant response rating, Windgrass ([17]; 62 g ai/ha, scale 0 to 100): 100 | Plant response rating, Windgrass ([17]; 125 g ai/ha, scale of 0 to 100): 100 | Plant response rating, Johnsongrass ([18]; 31 g ai/ha, scale 0 to 100): 10 | Plant response rating, Johnsongrass ([18]; 62 g ai/ha, scale 0 to 100): 70 | Plant response rating, Johnsongrass ([18]; 125 g ai/ha, scale of 0 to 100): 85
